ChEMBL document CHEMBL3507680, “University of Dundee, Gates Library screen for HepG2 cell viability”

Experiment: Human HepG2 cell viability assay in 384 well format
Type: toxicity, cell-based
Design: dose 125 nL, time 70.5 hour; concentration not given beside the values
Conditions: HepG2 cells, read-out: Inhibition

Compared with `Cn1ccc(C(=O)N2CCC3(CCC(=O)N(C4CCCC4)C3)CC2)n1`, `CC(=O)N1CCC(Cc2cnc(C(=O)N3CCCC3)cn2)C1` (centres undefined) is lower in cytotoxicity at 70.5 h: 12.2% for the first, -4.28% for the second.

Compared with `O=C(NCc1ccco1)c1cc(N2CC[C@@H](O)C2)ccn1`, `COc1ccc(C(=O)N2CCC(Nc3cccnn3)CC2)cn1` is lower in cytotoxicity at 70.5 h: 30.9% for the first, 13.7% for the second.

First: CC(=O)Nc1nc(C(=O)N2CCCC(n3nc(C)cc3C)C2)cs1 (centres undefined)
Second: CCc1nc(C2CCCN2CC(=O)Nc2cc(C)nn2C)no1 (centres undefined)
The cytotoxicity at 70.5 h of the first is higher: 31.5% for the first, -15.1% for the second.

First: Cc1cc(-c2cc(N)c(=O)n(CC(=O)NCC3CCCCC3)n2)c(C)o1
Second: Cc1oc(-c2nc(C#N)c(NC(C)C)o2)cc1S(=O)(=O)N1CCCC1
The cytotoxicity at 70.5 h of the first is higher: 12.5% for the first, -25.3% for the second.

Going from `CCC(=O)N1C[C@@H](C(=O)NC)[C@H](c2ccnc(N3CCCC3)n2)C1` to `C1CCN(c2nc(N3CCOCC3)nc3[nH]nnc23)CC1`, the cytotoxicity at 70.5 h falls from -3.94% to -5.52%.

Going from `Cc1cc(-c2cnc(N3CCNC(=O)C3)nc2-c2sccc2C)on1` to `Cc1nc(Nc2nnc(C)s2)cc(C2CCCN2c2ccncn2)n1` (centres undefined), the cytotoxicity at 70.5 h falls from -6.64% to -8.94%.

Compared with `CC(Oc1cccc(Cl)c1)C(=O)Nc1cnn(CCN(C)C)c1` (centres undefined), `CNS(=O)(=O)c1ccc(CNC(=O)Nc2cn[nH]c2)cc1` is lower in cytotoxicity at 70.5 h: 23.7% for the first, -5.63% for the second.

Going from `c1ncn(Cc2cnc3n2CCN(Cc2ccsc2)CC3)n1` to `Cc1csc(CN2CCn3c(COc4cccnc4)cnc3C2C)n1` (centres undefined), the cytotoxicity at 70.5 h falls from 1.42% to -9.58%.

Compared with `Cc1ccc(C2COCCN2C(=O)c2cccc(N(C)C)c2)o1` (centres undefined), `CN(C)CC1COCCN1C(=O)c1ccccc1C(=O)c1ccccc1` (centres undefined) is lower in cytotoxicity at 70.5 h: -7.51% for the first, -7.66% for the second.

First: CC(=O)N(C)CC(=O)Nc1cnc(-n2ccnc2)nc1
Second: COc1ccc(NC(=O)Cn2nc(C)ccc2=O)cc1OC
The cytotoxicity at 70.5 h of the first is higher: 0.242% for the first, 0.232% for the second.

Compared with `COc1cc(CNCCC(N)=O)c2c(c1)CC(C)O2` (centres undefined), `COc1cc(CNC2CCc3nc(C)nn3C2)cc2c1OCCO2` (centres undefined) is lower in cytotoxicity at 70.5 h: -0.966% for the first, -9% for the second.

Going from `c1ccc(C(OCCNC2CCc3ncnn3C2)c2ccccc2)cc1` (centres undefined) to `COCCN(C)C[C@@H]1CN(c2cc(C)nc3ccccc23)C[C@@H]1CO`, the cytotoxicity at 70.5 h falls from -5.27% to -14.9%.

Compared with `CC1(Cc2ccc3c(c2)OCO3)CCCN(S(=O)(=O)N2CCOCC2)C1` (centres undefined), `O=C(NCCC1CCCO1)c1ccccc1N1CCOCC1` (centres undefined) is higher in cytotoxicity at 70.5 h: -6.32% for the first, 1.49% for the second.

First: NC(=O)C1CCN(C(=O)CCCc2ccc(Cl)c(Cl)c2)CC1
Second: CC1CN(C(=O)CN(Cc2ccccc2Br)C2CC2)CCO1 (centres undefined)
The cytotoxicity at 70.5 h of the first is lower: -6.88% for the first, -0.289% for the second.

Going from `Cc1nc(CN(C)C(=O)Nc2cccc(C)c2C)no1` to `Cc1cccc(C)c1NC(=O)CN(C)C(C)c1nc(C(C)(C)C)no1` (centres undefined), the cytotoxicity at 70.5 h falls from -9.32% to -88.9%.

First: Fc1cnc(N2C[C@@H]3C[C@@H](c4nc(C5CC5)cs4)O[C@@H]3C2)nc1
Second: C[C@H]1C[C@H]2CN(C(=O)c3ccncn3)CC[C@@H]2O1
The cytotoxicity at 70.5 h of the first is higher: -1.67% for the first, -19.6% for the second.

Going from `Cc1cc2nc(CO[C@H]3CN(CC4CC4)C[C@H]3F)[nH]c2cc1C` to `COc1ccc(OC2CCN(C(=O)c3ccc(C)[nH]c3=O)CC2)cc1`, the cytotoxicity at 70.5 h falls from -2.67% to -5.37%.

Compared with `CCCn1ccc2cc(NC(=O)CC3CCCO3)ccc21` (centres undefined), `CN1CCN(CCOc2ccc(NC(=O)c3cnc[nH]3)cc2)CC1` is higher in cytotoxicity at 70.5 h: -5.13% for the first, 6.08% for the second.

First: O=S(=O)(C1CC1)N1CCc2onc(COc3ccccn3)c2C1
Second: C1CN(c2nc3c(c(NC4CC4)n2)CN(CC2CCOC2)CC3)CCO1 (centres undefined)
The cytotoxicity at 70.5 h of the first is higher: 34.6% for the first, -9.83% for the second.

Going from `O=C(c1ccc(=O)[nH]n1)N(CCO)Cc1cc(Br)ccc1F` to `COCCCNc1c(-c2ccc(C)cc2)c(=O)c1=O`, the cytotoxicity at 70.5 h falls from -5.4% to -6.65%.

Going from `Cc1cccc(CN2CCCC(O)(CNCc3cccc(F)c3)C2=O)c1` (centres undefined) to `CC(=O)N(CCC(=O)NC1(C#N)CCC1)Cc1ccccc1`, the cytotoxicity at 70.5 h rises from -5.44% to 21.1%.

Compared with `Cc1cnc(N2CCCC3(CCOCC3)C2)nc1`, `CNC(=O)CN1CCOCC2(C1)CN(Cc1csnn1)CCO2` (centres undefined) is higher in cytotoxicity at 70.5 h: -1.55% for the first, 12.8% for the second.
